One may read the IC50 as the midpoint of a concentration-inhibition curve. High values mean a need for much substance, low ones inhibition by little substance.

This note sets out measurements from BindingDB's records for doi:10.1016/j.bioorg.2014.08.007 (Central University of Punjab, 2014).

Chain of Xanthine dehydrogenase/oxidase (P80457 whole entry): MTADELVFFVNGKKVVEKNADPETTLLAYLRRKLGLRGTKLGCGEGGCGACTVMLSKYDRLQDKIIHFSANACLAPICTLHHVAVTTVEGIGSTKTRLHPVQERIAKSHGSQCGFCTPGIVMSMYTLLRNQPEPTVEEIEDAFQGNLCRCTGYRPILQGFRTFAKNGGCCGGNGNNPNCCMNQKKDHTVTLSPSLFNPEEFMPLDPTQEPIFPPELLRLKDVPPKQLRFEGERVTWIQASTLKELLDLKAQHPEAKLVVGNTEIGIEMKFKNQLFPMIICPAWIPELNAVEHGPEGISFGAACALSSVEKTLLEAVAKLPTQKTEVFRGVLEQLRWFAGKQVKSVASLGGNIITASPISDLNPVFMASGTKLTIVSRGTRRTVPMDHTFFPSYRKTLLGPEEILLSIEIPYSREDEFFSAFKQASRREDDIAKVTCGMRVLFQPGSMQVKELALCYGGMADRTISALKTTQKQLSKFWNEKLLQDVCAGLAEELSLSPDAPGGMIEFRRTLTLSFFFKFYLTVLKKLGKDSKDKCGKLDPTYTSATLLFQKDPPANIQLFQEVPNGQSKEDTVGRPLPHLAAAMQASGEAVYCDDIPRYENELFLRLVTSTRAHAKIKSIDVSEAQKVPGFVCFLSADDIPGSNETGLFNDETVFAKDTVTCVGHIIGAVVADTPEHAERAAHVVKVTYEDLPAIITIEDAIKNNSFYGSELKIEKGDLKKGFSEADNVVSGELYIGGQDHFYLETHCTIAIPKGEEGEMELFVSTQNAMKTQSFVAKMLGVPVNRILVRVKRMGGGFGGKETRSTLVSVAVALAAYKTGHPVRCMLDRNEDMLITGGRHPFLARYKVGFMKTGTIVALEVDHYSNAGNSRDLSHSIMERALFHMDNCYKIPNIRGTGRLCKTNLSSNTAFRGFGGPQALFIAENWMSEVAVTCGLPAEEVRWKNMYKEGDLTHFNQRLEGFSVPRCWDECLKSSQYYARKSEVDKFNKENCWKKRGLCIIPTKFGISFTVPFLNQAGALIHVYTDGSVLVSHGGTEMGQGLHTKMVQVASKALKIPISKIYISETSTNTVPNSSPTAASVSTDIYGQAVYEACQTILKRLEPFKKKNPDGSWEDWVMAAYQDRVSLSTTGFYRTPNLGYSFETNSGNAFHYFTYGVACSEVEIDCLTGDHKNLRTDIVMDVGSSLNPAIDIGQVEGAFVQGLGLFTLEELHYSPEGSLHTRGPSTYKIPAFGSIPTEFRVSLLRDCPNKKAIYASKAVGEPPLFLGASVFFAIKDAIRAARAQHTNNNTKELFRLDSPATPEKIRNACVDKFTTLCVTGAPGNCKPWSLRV

For this experiment, the target named is Xanthine dehydrogenase/oxidase (Bos taurus, UniProt P80457). Nature of the experiment: XO inhibitory assay. Particulars: pH 7.5; 25 °C. As for the experimental part:
The reaction mixture contained 1.5 mL of 50 mM potassium phosphate buffer (pH 7.5), 1 mL test sample solutions (5, 10, 25, 50, and 100 µM) was dissolved in DMSO, 0.5 mL of XO enzyme solution (0.2 units/mL of xanthine oxidase in phosphate buffer). The reaction mixture was pre-incubated at room temperature for 15 min, followed by the addition of 1 mL of substrate solution (0.10 mM of xanthine). The mixture was further incubated at room temperature for 30 min and stopped with the addition of 1 mL of 1 M HCl.
As for `O=[N+]([O-])c1cccc(C2Nc3ccccc3-c3cc(-c4ccccc4)nn32)c1` (centres undefined) [5‐(3‐nitrophenyl)‐2‐phenyl‐5H,6H‐pyrazolo[1,5‐ c]quinazoline (6h)], the IC50 came to 20.9 µM.
As for `Nc1ccccc1-c1cc(-c2ccccc2)n[nH]1`, the IC50 stood at 41.7 µM.
With `COc1ccc(C2Nc3ccccc3-c3cc(-c4ccccc4)nn32)cc1OC` (centres undefined) [5‐(3,4‐dimethoxyphenyl)‐2‐phenyl‐5H,6H‐ pyrazolo[1,5‐c]quinazoline (6e)], it took 43.6 µM to reach half-maximal inhibition (IC50).
In turn, `Oc1c(Cl)cc(Cl)cc1C1Nc2ccccc2-c2cc(-c3ccccc3)nn21` (centres undefined) [2,4‐dichloro‐6‐{2‐phenyl‐5H,6H‐pyrazolo[1,5‐ c]quinazolin‐5‐yl}phenol (6g)] came in with an IC50 of 11 µM.
